System: secretory IgA and serum IgG antibodies
Experiment: Oral immunization with OVA nanoparticles, ELISA of secretory IgA and serum IgG antibodies
Format: in vivo, male Sprague-Dawley adult rats
Details: immunizations at week 0 and week 4
Method: Once the particles were generated and washed they were introduced orally into experimental animals (male Sprague-Dawley adult rats (200-250 g wt., 12-15 weeks old, Harlow). Ten animals were used for each group. About 1 mg of dry weight of nanoparticles in the reaction mixture has been administered orally into the stomach of each animal. The nonloaded (#8) nanoparticles were also administered to control animals, in addition to a soluble antigen (OVA)(#9). ELISA assay of secretory IgA and serum IgG antibodies was carried out as described [Challacombe, et al., Enhanced secretory IgA and systemic IgG antibody response after oral immunization with biodegradable microcapsules containing antigen. Immunology 76: 164-168 (1992)]. Primary and secondary immunization protocol was used, consisting of two immunizations at week 0 and at week 4. […] In another set of experiments nonloaded nanoparticles (no OVA) were separately tested in simulated gastric (pH 2) and intestinal (pH 8.3) solutions for their stability. […] Similar results in terms of antibodies and release characteristics were obtained for tetanus toxoid antigen.

For “ovalbumin (egg albumin) [Sol OVA, soluble ovalbumin antigen from Sigma]”, the “Response to oral delivery of nanoparticulate OVA antigen, Mean” value (Day 28, rats) was 75.0 and the “Response to oral delivery of nanoparticulate OVA antigen, Mean” value (Day 56, rats) was 550.0.
